These results are taken from patent US20150025131A1 (priority 2013, published 2015).

Test [1] has as its system serum glutathione. Briefly: Adjuvant induced arthritis model, serum glutathione. The note with it: AIA rats, daily intraperitoneal; Patuletin 25 mg/kg, indomethacin 5 mg/kg. The test is classed as in vivo, Sprague Dawley rats. As to the method: (§1) All studies were carried out using Female Sprague Dawley (SD) rats weighing 150-250 gms. Animals were kept at 21±2° C. and on a 12-h light/dark cycle, received standardized pelleted diet and tap water. Experiments were performed under the ethical guidelines of the International Association for the study of pain in conscious animals. Each group contains 12 animals with randomly distributed weights into each treatment group.
Arthritis was induced by injecting freshly prepared 100 μL of 1 mg suspension of lyophilized Mycobacterium tuberculosis H37Ra (MT H37Ra; DIFCO Laboratories, Detroit, Mich., USA), subcutaneously at the rat tail base using sterile hypodermic needle. Inoculation was carried out under anesthesia with a combination of 20 mg/kg ketamine and 5 mg/kg xylazine, injected intraperitoneally. Compound and the reference drug were administered daily, intraperitoneally using sterile syringes. The positive control received vehicle (5% DMSO+PBS) or saline only; treatment groups received test compounds (25 mg/kg), whereas reference group received indomethacin (5 mg/kg). […]
The concentration of reduced form of glutathione was determined in serum using the colorimetric Quantichrome ™ Glutathione assay kit (Bioassay Systems) in duplicates, using 96 well plates and according to manufacturer's instructions. The OD recorded at 412 nm which directly represents the level of glutathione in serum.

Test [2] concerns ROS production from mice peritoneal macrophages. Briefly: Luminol enhanced chemiluminescence oxidative burst, mice peritoneal macrophages. The test is classed as cell-based. The note with it: Mus musculus, Peritoneal macrophage, serum opsonized zymosan, read-out: Myeloperoxidase dependent Oxidative Burst (IC50 μg/mL) Macrophages. As to the method:
(§2) Intracellular effect was determined using human peripheral whole blood phagocytes and isolated neutrophils and from mice peritoneum macrophages, where luminol-enhanced chemillumenescence assay was applied. The effect on myeloperoxidase independent ROS production was determined using lucigenin on murine macrophages RAW.267 cells.
(§3) Table 2. […] 267 cells (murine macrophages). DPI is used as standard drug. Reading presents mean±SD of three determinations.
NMRI mice of 25 to 30 gm weight were injected aseptically with 1 mL of heat inactivated fetal bovine serum (FBS) in the peritoneum cavity, using sterile 1 mL syringe and mice were kept for further 72 h. […] Cells were counted and concentration was adjusted to 1×10^6/mL for chemiluminescence assay.
(§4) Luminol enhanced chemiluminescence technique was applied to study the effect of compound on ROS from phagocytes, Using whole blood, neutrophil and macrophages Briefly, 25 μL diluted whole blood (1:50 dilution in sterile HBSS^++) or 25 μL of PMNs (1×10^6), or 25 μL of isolated macrophages (1×10^6) were incubated with 25 μL of compound in triplicates and using three different concentrations (1, 10 and 100 μg/mL) using white 96 wells plates. […] Results were monitored as relative light unit (RLU) reading, with peak and total integral values set with repeated scans at 60 seconds intervals, and 1 second points measuring time.

Test [3] relates to rheumatoid factor. The test can be described thus: Adjuvant induced arthritis model, serum RA factor. The test is classed as in vivo, Sprague Dawley rats. Particulars: AIA rats, daily intraperitoneal; Patuletin 25 mg/kg, indomethacin 5 mg/kg. As to the method: as §1
Arthritis was induced by injecting freshly prepared 100 μL of 1 mg suspension of lyophilized Mycobacterium tuberculosis H37Ra (MT H37Ra; DIFCO Laboratories, Detroit, Mich., USA), subcutaneously at the rat tail base using sterile hypodermic needle. Inoculation was carried out under anesthesia with a combination of 20 mg/kg ketamine and 5 mg/kg xylazine, injected intraperitoneally. Compound and the reference drug were administered daily, intraperitoneally using sterile syringes. […]
Measurement of RA factor in rat serum was determined using Tina-quant RFII Kit (Roche Diagnostics, USA) and automated analyzers according to manufacturer's instructions. The test principle involves the reaction of latex bound heat inactivated IgG (antigen) with RF antibodies in the sample to form Ag/Ab complex resulting in agglutination which can be measured turbidimetrically.

The test system of test [4] is ROS production from PMA activated RAW. 267 cells (murine macrophages). The test can be described thus: Lucigenin enhanced (myeloperoxidase independent) oxidative burst. The test is classed as cell-based. The note with it: Mus musculus, Macrophage. As to the method: Intracellular effect was determined using human peripheral whole blood phagocytes and isolated neutrophils and from mice peritoneum macrophages, where luminol-enhanced chemillumenescence assay was applied. The effect on myeloperoxidase independent ROS production was determined using lucigenin on murine macrophages RAW.267 cells. […] Table 2. […] 267 cells (murine macrophages). DPI is used as standard drug. Reading presents mean±SD of three determinations.

Test [5] deals with IL-2 production. Briefly: IL-2 cytokine production. The test is classed as cell-based. Particulars: read-out: IL-2 inhibition (IC50 μg/mL).
The test system of test [6] is ROS production from human neutrophils. Briefly: Luminol enhanced chemiluminescence oxidative burst, isolated neutrophils. The test is classed as cell-based. Particulars: Neutrophil, serum opsonized zymosan, read-out: Myeloperoxidase dependent Oxidative Burst (IC50 μg/mL) Neutrophils. As to the method: as §2, §3
Heparinized blood was obtained by vein puncture aseptically, from healthy volunteers (25-38 years age). The buffy coat containing polymorhonuclear neutrophils (PMNs) was collected by dextran sedimentation, and cells were isolated after the LSM density gradient centrifugation. […]
as §4

In brackets after ≈: the same amount, converted by molar mass. Entries after “also recorded” stand apart in the source; their conditions may differ. Where two headings read alike, the source gives them in different places.

Turning to `COc1c(O)cc2oc(-c3ccc(O)c(O)c3)c(O)c(=O)c2c1O` [Patuletin, 3,5,7,3′,4′-pentahydroxy-6-methoxy flavones], in test [1], the “level of glutathione in serum versus arthritic control group” value was “non-significant increase; also recorded: mild increase”. Moreover, the IC50 in test [2] was 1.9 µg/mL; in test [4] (compared to DPI as standard drug, read-out: inhibition of extracellular ROS species (IC50), unit inferred), 0.3 µg/mL; in test [4] (lucigenin enhanced, PMA activated RAW. 267 cells, read-out: Myeloperoxidase independent Oxidative Burst (IC50 μg/mL) on macrophages), 0.3 ± 0.03 µg/mL; in test [5], 14.8 µg/mL (≈ 44.5 µM); in test [6], 1.2 µg/mL. Also, the “level of RA factor (rheumatoid factor) in serum versus arthritic control group” value in test [3] is reported as “marked decrease”.
